The numbers were not newly measured in patent US20050043329A1, “Crystalline forms of valacyclovir hydrochloride” (priority 2002, published 2005), which cites them from elsewhere.

The conditions of series [1]: after oral administration in healthy adults.
The conditions of series [2]: after oral administration.

In the case of `CC(C)[C@H](N)C(=O)OCCOCn1cnc2c(=O)[nH]c(N)nc21` [valacyclovir, 1-valine, 2-[(2-amino-1,6-dihydro-6-oxo-9H-purin-9-yl)methoxy]ethyl ester], the conversion to acyclovir result in series [1] was “converted rapidly and virtually completely”. Besides, the “absorption from the gastrointestinal tract” value in series [2] is on record as “rapidly absorbed”.
